Experiments:
[1] = tested on: E16 rat hippocampal or cortical neurons; assay: Axonal Branching Assay; assay type: cell-based
Procedure: Compounds are tested for the ability to enhance axonal branching in E16 rat hippocampal or cortical neurons. 1 mg/ml stock of PDL is diluted into 100 μg/ml in DI water. The glass coverslips are coated for at least 1 hour at 37° C. prior to doing the dissection. PDL is aspirated and the plates are rinsed with PBS and air-dried in hood. Cortical or hippocampal lobes are combined with 9 mL of Base media (Neurobasal+Pen/Strep) and put on ice. 1 mL of 10× trypsin solution is added and the mixture is swirled gently. The tissue is then digested via incubation in a 37° C. waterbath for 20 minutes. After 20 minutes, 10 μl/ml DNase (100 μL DNase) is added and the mixture is incubated for another 5 minutes. The cells are spun at 1000 rpm for 1 minute. The enzyme solution is then removed without removing any of the brain fragments sitting on the bottom. The solid is washed 3 times with Wash media (Neurobasal+10% and Pen/Strep). […] The cells are counted in a hemacytometer and seeded at 5000-10000 cells/well in a 24 well plate with glass coverslip inserts coated with PDL. […] Images are captured at 10× and 20× on an upright microscope and axonal branching is determined by quantification of area under threshold fluorescence of neurofilament Alexa 488 per cell. Dendritic branching is determined by quantification of area under threshold fluorescence of MAP2 Alexa 568 per cell. […]

[2] = tested on: β-catenin; assay: β-catenin induction in brains of MCAO rats (Western blot); assay type: in vivo, rat; conditions: all doses, at the termination of the study
Procedure: Hypotonic Lysis Buffer consists of 10 mM HEPES, 10 mM KCL, 1.5 mM MgCl2, 1.0 mM EDTA, 1.0 mM DTT, 1× Roche protease inhibitor cocktail, and 1.0 mM AEBSF Calbiochem protease inhibitor cocktail (cat#539134). All concentrations are final and are diluted in water. First, hypotonic lysis buffer is added to the tissue at 5×'s weight. The tissue is then broken up on ice using the end of a syringe plunger. Next, the samples are freeze-thawed five times. The lysates are then transferred to ultracentrifuge tubes and spun at 100,000 g for 35 min at 4° C. The supernatants are then collected and an aliquot is taken to measure protein with the Pierce BCA protein assay kit (cat#23225), using BSA standard curve. The remaining protein lysates are diluted 1:1 with laemmli sample buffer containing β-mercaptoethanol. The protein concentration is then normalized. The samples are boiled for 5 min at 95° C. followed by a spin at 14,000 rpm in a mini-centrifuge for 1 min. The samples are then snap frozen with dry ice and stored at −20° C. The samples are first loaded on 10% Tris-glycine gel (10 uL/well). […] Induction of β-catenin is determined by comparison of the density of protein band in samples obtained from compound treated animals with that of vehicle treated animals. […] Lysates were analyzed by Western blot (see Example 3) and probed for GSK-3α/β pTYR levels. […]

SMILES: Cc1nc(-c2ccccc2Cl)nc(Nc2n[nH]c3ncc(F)cc23)c1C [Compound I-1, N-(2-(2-chlorophenyl)-5,6-dimethylpyrimidin-4-yl)-5-fluoro-1H-pyrazolo[3,4-b]pyridin-3-amine]
- axonal and dendritic branching ([1]; 10 nM, 7 days): increased axonal and dendritic branching
- axon growth ([1]; concentrations that have been shown to induce β-catenin): axon growth was inhibited
- induction of β-catenin in the brain [2]: no induction of β-catenin

From US8518953B2, “Aminopyrimidines useful as inhibitors of protein kinases” (Vertex Pharmaceuticals Incorporated, priority 2007, dated 2013)
